Assay results as given in patent publication US20260116944A1, “NOVEL TRIPLE GLP-1/GIP/GLUCAGON RECEPTOR AGONIST AND A PHARMACEUTICAL COMPOSITION FOR PREVENTING OR TREATING OBESITY COMPRISING THE SAME” (HANMI PHARM. CO., LTD., priority 2022, published 2026).
*1 amine or outer side, *2 acyl side, *3 side chain or, on linkers, in order; H or OH if unused. Bridges are numbered along the chain shown (N, C = ends). Where no end group is shown, it is not given here. Side-chain parts run from the residue outwards. [ ]: non-standard residue; d: D form. The star is where a group is joined. C20 diacid = O=C(O)CCCCCCCCCCCCCCCCCCC(=O)*; γGlu = O=C(O)[C@H](CCC(=O)[*:2])N[*:1]; AEEA = NCCOCCOCC(=O)O; Aib = CC(C)(N)C(=O)O

Assay: Weight loss effect in AMLN diet-induced obese mice
Format: in vivo
Settings: 351 ug/kg, Q2D, subcutaneously, 2 weeks, vs. excipient control, p<0.001 one-way ANOVA, FIG. 1
Experimental: In order to confirm the weight loss effect of each of the three triple agonists of SEQ ID NO: 1, SEQ ID NO: 2, and SEQ ID NO: 4 prepared in the Example above, an AMLN (amylin) mouse model, known as an obesity model, was used. AMLN diet-induced mice were divided into an excipient control group and groups administered with three types of triple agonists (351 ug/kg, Q2D, subcutaneously), and the administration was repeated for 2 weeks.
After repeated administration for 2 weeks, the body weight was measured, and the change in body weight relative to the body weight immediately before administration (DO) was measured to evaluate weight loss effect.

Substance	weight loss efficacy (change in body weight relative to immediately before administration)
Y-Aib-QGTFTSDYSK(1)YLDEKRAKEFVQWLLDHHPSSGQPPPS (Y[Aib]QGTFTSDYSK([AEEA-AEEA-γGlu-C20 diacid])YLDEKRAKEFVQWLLDHHPSSGQPPPS-NH2; lactam 16-20; N-terminus assumed; SMILES CC(C)C[C@H](NC(=O)[C@H](Cc1ccc(O)cc1)NC(=O)[C@H](CCCCNC(=O)COCCOCCNC(=O)COCCOCCNC(=O)CC[C@H](NC(=O)CCCCCCCCCCCCCCCCCCC(=O)O)C(=O)O)NC(=O)[C@H](CO)NC(=O)[C@H](Cc1ccc(O)cc1)NC(=O)[C@H](CC(=O)O)NC(=O)[C@H](CO)NC(=O)[C@@H](NC(=O)[C@H](Cc1ccccc1)NC(=O)[C@@H](NC(=O)CNC(=O)[C@H](CCC(N)=O)NC(=O)C(C)(C)NC(=O)[C@@H](N)Cc1ccc(O)cc1)[C@@H](C)O)[C@@H](C)O)C(=O)N[C@@H](CC(=O)O)C(=O)N[C@H]1CCC(=O)NCCCC[C@@H](C(=O)N[C@@H](CCC(=O)O)C(=O)N[C@@H](Cc2ccccc2)C(=O)N[C@H](C(=O)N[C@@H](CCC(N)=O)C(=O)N[C@@H](Cc2c[nH]c3ccccc23)C(=O)N[C@@H](CC(C)C)C(=O)N[C@@H](CC(C)C)C(=O)N[C@@H](CC(=O)O)C(=O)N[C@@H](Cc2c[nH]cn2)C(=O)N[C@@H](Cc2c[nH]cn2)C(=O)N2CCC[C@H]2C(=O)N[C@@H](CO)C(=O)N[C@@H](CO)C(=O)NCC(=O)N[C@@H](CCC(N)=O)C(=O)N2CCC[C@H]2C(=O)N2CCC[C@H]2C(=O)N2CCC[C@H]2C(=O)N[C@@H](CO)C(N)=O)C(C)C)NC(=O)[C@H](C)NC(=O)[C@H](CCCNC(=N)N)NC(=O)[C@H](CCCCN)NC1=O) [SEQ ID NO: 2, acylated triple agonist peptide, K(1) at position 12, lactam bridge E16-K20]	significant weight loss efficacy
Y-Aib-QGTFTSDYSK(1)YLDEKRAKDFVQWLLDHHPSSGQPPPS (Y[Aib]QGTFTSDYSK([AEEA-AEEA-γGlu-C20 diacid])YLDEKRAKDFVQWLLDHHPSSGQPPPS-NH2; lactam 16-20; N-terminus assumed; SMILES CC(C)C[C@H](NC(=O)[C@H](Cc1ccc(O)cc1)NC(=O)[C@H](CCCCNC(=O)COCCOCCNC(=O)COCCOCCNC(=O)CC[C@H](NC(=O)CCCCCCCCCCCCCCCCCCC(=O)O)C(=O)O)NC(=O)[C@H](CO)NC(=O)[C@H](Cc1ccc(O)cc1)NC(=O)[C@H](CC(=O)O)NC(=O)[C@H](CO)NC(=O)[C@@H](NC(=O)[C@H](Cc1ccccc1)NC(=O)[C@@H](NC(=O)CNC(=O)[C@H](CCC(N)=O)NC(=O)C(C)(C)NC(=O)[C@@H](N)Cc1ccc(O)cc1)[C@@H](C)O)[C@@H](C)O)C(=O)N[C@@H](CC(=O)O)C(=O)N[C@H]1CCC(=O)NCCCC[C@@H](C(=O)N[C@@H](CC(=O)O)C(=O)N[C@@H](Cc2ccccc2)C(=O)N[C@H](C(=O)N[C@@H](CCC(N)=O)C(=O)N[C@@H](Cc2c[nH]c3ccccc23)C(=O)N[C@@H](CC(C)C)C(=O)N[C@@H](CC(C)C)C(=O)N[C@@H](CC(=O)O)C(=O)N[C@@H](Cc2c[nH]cn2)C(=O)N[C@@H](Cc2c[nH]cn2)C(=O)N2CCC[C@H]2C(=O)N[C@@H](CO)C(=O)N[C@@H](CO)C(=O)NCC(=O)N[C@@H](CCC(N)=O)C(=O)N2CCC[C@H]2C(=O)N2CCC[C@H]2C(=O)N2CCC[C@H]2C(=O)N[C@@H](CO)C(N)=O)C(C)C)NC(=O)[C@H](C)NC(=O)[C@H](CCCNC(=N)N)NC(=O)[C@H](CCCCN)NC1=O) [SEQ ID NO: 4, acylated triple agonist peptide, K(1) at position 12, lactam bridge E16-K20]	significant weight loss efficacy
